Test results: patent US20220390432A1, “METHODS OF CHARACTERIZING AND UTILIZING AGENT-CONDENSATE INTERACTIONS” (Whitehead Institute for Biomedical Research, priority 2019, published 2022)
No end group written: not given here.

T1: ER/MED1 droplets (Homo sapiens, UniProt P03372)
T1 sequence (P03372 1-595): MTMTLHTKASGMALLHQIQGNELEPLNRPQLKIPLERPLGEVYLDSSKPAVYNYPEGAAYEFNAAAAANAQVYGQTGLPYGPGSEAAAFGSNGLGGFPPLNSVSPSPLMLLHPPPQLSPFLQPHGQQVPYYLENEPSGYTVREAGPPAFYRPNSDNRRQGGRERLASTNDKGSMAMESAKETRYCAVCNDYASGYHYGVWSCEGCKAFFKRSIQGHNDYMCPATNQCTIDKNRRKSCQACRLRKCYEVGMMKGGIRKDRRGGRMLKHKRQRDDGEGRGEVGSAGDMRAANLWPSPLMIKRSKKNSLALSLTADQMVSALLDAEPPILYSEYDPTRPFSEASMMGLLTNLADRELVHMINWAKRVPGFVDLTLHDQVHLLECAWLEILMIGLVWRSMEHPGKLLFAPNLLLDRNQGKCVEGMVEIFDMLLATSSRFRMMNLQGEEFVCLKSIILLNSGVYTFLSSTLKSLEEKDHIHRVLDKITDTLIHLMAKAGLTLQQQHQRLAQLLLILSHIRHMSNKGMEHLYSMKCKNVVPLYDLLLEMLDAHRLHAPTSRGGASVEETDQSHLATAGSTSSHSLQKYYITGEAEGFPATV


What was measured:
ER/MED1 droplets = target: T1, ER/MED1 droplets; assay: Peptides added to ER/MED1 droplets; format: biochemical; settings: for effect of peptide on ER partitioning / ER/MED1 droplet formation: in the presence of estrogen
Method: FIG. 24 illustrates ER/MED1 droplets contacted with a fluorescent peptide (left side).
A number of condensate components are known to form in vitro condensates. In general, one or more condensate components are added to solutions (e.g. aqueous solution) at varying concentrations in the presence of a salt (e.g., NaCl) and, optionally, a crowding agent (e.g., polyethylene glycol, Ficoll). See, e.g., Boija et al, Cell, vol. 175, no. 7, pp. 1842-1855 (2018); Sabari et al., Science, vol. 361, pp. 361-371 (2018); Bergeron-Sandoval et al., Cell, vol. 165, no. 5, pp. 1067-1079 (2016). May 19; 165(5):1067-1079, the relevant methods of which are specifically incorporated herein. In some embodiments, in vitro MED1 containing condensates are formed by adding about 10 μM of MED1 to a solution containing […] of NaCl and 10% PEG (e.g., PEG-8000).

[1] = system: MED1, BRD4, and POL2 condensates in HCT116 colon cancer cell lines; assay: Small molecule effects on transcriptional condensates in GFP-tagged HCT116 cells; format: cell-based, human; settings: for effect on transcriptional condensates: MED1-GFP, BRD4-GFP, POL2-GFP HCT116; for effect of antimetabolites on MED1, BRD4 or POL2 condensates: 5 uM
From the text: HCT116 colon cancer cell lines endogenously tagged with MED1-GFP, BRD4-GFP, POL2-GFP, or HP1a-GFP (Mock), all forming condensates in the nucleus.

MED1 = target: T2, MED1 (Homo sapiens, UniProt Q15648); assay: In vitro droplet assay, small molecule partitioning into MED1 condensates; format: binding; settings: confocal fluorescence; Example 2: 125 mM NaCl, 10% PEG, 10 μM protein; fluorescent or fluorescently labeled drug
T2 construct: MED1—amino acids 600-1581; 6xHis (N); made in house; host or cells: LOBSTR cells (E. coli)
T2 sequence (Q15648 600-1581): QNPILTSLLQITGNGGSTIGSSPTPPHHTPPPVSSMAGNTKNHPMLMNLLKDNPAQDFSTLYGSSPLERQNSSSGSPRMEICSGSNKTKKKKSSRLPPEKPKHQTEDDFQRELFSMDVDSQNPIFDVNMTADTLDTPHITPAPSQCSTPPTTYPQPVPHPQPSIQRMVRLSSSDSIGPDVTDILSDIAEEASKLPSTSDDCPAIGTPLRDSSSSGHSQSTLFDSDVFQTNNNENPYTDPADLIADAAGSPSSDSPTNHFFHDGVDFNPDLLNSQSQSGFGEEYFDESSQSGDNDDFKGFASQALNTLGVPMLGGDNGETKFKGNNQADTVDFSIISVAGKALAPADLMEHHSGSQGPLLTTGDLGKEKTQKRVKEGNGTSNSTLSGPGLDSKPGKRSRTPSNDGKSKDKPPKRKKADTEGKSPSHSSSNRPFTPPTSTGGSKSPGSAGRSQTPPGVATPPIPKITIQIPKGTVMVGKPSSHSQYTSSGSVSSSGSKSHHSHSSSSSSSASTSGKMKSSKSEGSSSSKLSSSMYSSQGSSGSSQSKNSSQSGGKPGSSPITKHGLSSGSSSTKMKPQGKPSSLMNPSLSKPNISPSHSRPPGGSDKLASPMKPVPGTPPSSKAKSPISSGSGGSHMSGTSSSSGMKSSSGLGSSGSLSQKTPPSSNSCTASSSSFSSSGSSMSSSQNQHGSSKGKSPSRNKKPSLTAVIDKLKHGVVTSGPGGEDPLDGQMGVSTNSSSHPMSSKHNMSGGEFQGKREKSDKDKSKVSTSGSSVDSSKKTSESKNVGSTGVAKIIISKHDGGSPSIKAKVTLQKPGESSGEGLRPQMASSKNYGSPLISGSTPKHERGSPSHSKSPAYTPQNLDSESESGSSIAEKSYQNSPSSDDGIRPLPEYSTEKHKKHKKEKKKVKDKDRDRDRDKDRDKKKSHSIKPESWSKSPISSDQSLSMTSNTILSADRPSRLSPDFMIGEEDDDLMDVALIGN
Method: (§1) Recombinant BFP, GFP, or mCherry fusion proteins were concentrated and desalted to an appropriate protein concentration and 125 mM NaCl using Amicon Ultra centrifugal filters (30K MWCO, Millipore). Recombinant protein was added too. […] The protein solution was immediately loaded onto glass bottom 384 well plate (Cellvis P384-1.5H-N) and imaged with an Andor confocal microscope with a 150× objective. Unless indicated, images presented are of droplets settled on the glass coverslip.
Drug and small molecule concentrations used in the droplet experiments are as follows:
To analyze in vitro droplet experiments, custom Python scripts using the scikit-image package were written to identify droplets and characterize their size, shape and intensity. Droplets were segmented from average images of captured channels on various criteria: (1) an intensity threshold that was three s.d. above the mean of the image; (2) size thresholds (20 pixel minimum droplet size); and (3) a minimum circularity (circularity=4π·areaperimeter2) (circularity=4π·areaperimeter2) of 0.8 (1 being a perfect circle). After segmentation, mean intensity for each droplet was calculated while excluding pixels near the phase interface, and background-corrected by subtracting intensity of dark images of droplet formation buffer only. Droplets identified in the channel of the fluorescent protein from ten independent fields of view were quantified for each experiment. The maximum intensity of signal within the droplets was calculated for each channel, the maximum intensity in the drug channel was termed “maximum drug intensity”. To obtain the intensity of drug or dye alone in the diffuse state (termed “diffuse drug intensity”), the compound was added to droplet formation buffer at same concentration used in the droplet assay. This was then imaged on a confocal fluorescent microscope. The resulting image was processed in FIJI to obtain the fluorescent intensity of the field. To obtain the fluorescent intensity of protein droplets that bleed through in the drug channel (termed “background intensity”) protein droplets were imaged in the fluorescent channel in which the drug fluoresces and processed as above to obtain the average maximum intensity within the droplet across 10 images. The enrichment ratio was obtained by the following formula [(maximum drug intensity)−(background intensity)]/(diffuse drug intensity). The box plots show the distributions of all droplets. Each dot represents an individual droplet.

[2] = Droplet formation assay of small molecule alone without any protein; format: physicochemical; settings: without any protein added
Method: as §1, with “Recombinant protein was added too.” left out

MED1 droplets = target: T3, MED1 droplets (Homo sapiens, UniProt Q15648); assay: In vitro droplet drug chase out experiment; format: binding; settings: 5 μM cisplatin-TR, 10 μM MED1, unlabeled compound 10, 100 or 500 μM
T3 construct: MED1—amino acids 600-1581; 6xHis (N); made in house; host or cells: LOBSTR cells (E. coli)
T3 sequence (Q15648 600-1581): as above
Method: For chase-out experiments 5 μM labeled cisplatin-TR was added to a MED1 droplets reaction (10 μM MED1, 50 mM Tris-HCl pH 7.5, 10% glycerol, 1 mM DTT, 10% PEG) in order to form MED1 droplets concentrated with Cisplatin-TR. Unlabeled transplatin or unlabeled cisplatin (vehicle, 10 μM, 100 μM, or 500 μM) were added to the droplet mixture and the amount of labeled cisplatin-TR remaining in the droplet is measured after chase out. 100 μM fluorescent FLTX1 was added to a MED1 droplets reaction (10 μM MED1, 50 mM Tris-HCl pH 7.5, 10% glycerol, 1 mM DTT, 10% PEG) in order to form MED1 droplets concentrated with FLTX1.

[3] = target: T4, MED1 intrinsically disordered region, amino acids 600-1581, recombinant fluorescent fusion protein (human, UniProt Q15648 600-1581); assay: in vitro droplet assay, peptide added to ER/MED1 droplets
T4 construct: Scaffold protein of the in vitro droplets; also called MED1-IDR; MED1 IDR; not shown: N-terminal 6xHIS plus fluorescent protein (BFP, mEGFP or mCherry)
T4 sequence (Q15648 600-1581 limits assumed): as the sequence (Q15648 600-1581) above

Molecule | effect on transcriptional condensates [1] | partitioning / incorporation into MED1 droplets (MED1) | other results
QNPILTSLLQITG [LXXLL peptide] | – | – | incorporation of peptide into MED1 droplets (ER/MED1 droplets; ER/MED1 droplets): incorporated into MED1 droplets; effect of peptide on ER partitioning / ER/MED1 droplet formation (ER/MED1 droplets): decrease in partitioning of ER into the MED1 droplet
CC(C)C[C@H](NC(=O)[C@H](Cc1ccccc1)NC(=O)c1cnccn1)B(O)O [Bortezomib] | global dissolution of condensates | – | –
CNC(=O)Nc1ccc2c(c1)CC[C@@]21OC(=O)N(CC(=O)N(Cc2ccc(F)cc2)[C@@H](C)C(F)(F)F)C1=O [A485] | genomic release and consolidation of condensates | – | –
COc1cc(/C=C/C(=O)CC(=O)/C=C/c2ccc(O)c(OC)c2)ccc1O [curcumin] | cause condensate dissolution | immediately incorporate into MED1 droplets | –
N#CC(=C(/N)Sc1ccccc1N)/C(C#N)=C(/N)Sc1ccccc1N [U0216] | eviction of some condensate components | – | –
Nc1ncn([C@@H]2O[C@H](CO)[C@@H](O)[C@H]2O)c(=O)n1 [5-Aza] | – | – | effect of antimetabolites on MED1, BRD4 or POL2 condensates [1]: no effect
CN(C)C/C=C/C(=O)Nc1ccc(C(=O)Nc2cccc(Nc3ncc(Cl)c(-c4c[nH]c5ccccc45)n3)c2)cc1 [THZ1] | global dissolution of condensates | concentrated preferentially in MED1 droplets | droplet formation of small molecule alone [2]: diffuse fluorescent signal
COc1cccc2c1C(=O)c1c(O)c3c(c(O)c1C2=O)C[C@@](O)(C(C)=O)C[C@@H]3O[C@H]1C[C@H](N)[C@H](O)[C@H](C)O1 [Daunorubicin] | global dissolution of condensates | immediately incorporate into MED1 droplets | effect on transcriptional condensates ([1]; listed as daunorubicin): cause condensate dissolution
Texas Red | – | Neither of the two dyes used to visualized drugs were enriched | –
CTD: RNA polymerase II CTD repeat YSPTSPS peptide | – | – | effect of peptide on ER partitioning / ER/MED1 droplet formation (ER/MED1 droplets): did not have an effect
O=c1[nH]cc(F)c(=O)[nH]1 [5-FU, fluorouracil] | – | – | effect of antimetabolites on MED1, BRD4 or POL2 condensates [1]: no effect
N.N.[Cl][Pt+2][Cl] [Transplatin, transplatin] | – | – | chase out of cisplatin-TR from MED1 droplets by unlabeled compound (MED1 droplets): not able to chase out cisplatin-TR; chase out of cisplatin-TR from MED1 droplets by unlabeled compound (MED1 droplets; listed as isomer of cisplatin): did not exhibit the same behavior
QNPILTSLLQITG (also: fluorescent label, type and position not given here, also called fluorescent peptide) [LXXLL peptide (QNPILTSLLQITG; SEQ ID NO: 1)] | – | – | binding result [3]: binds
